This note sets out measurements from patent publication US10053453B2, “Compounds and their use as BACE inhibitors” (AstraZeneca AB, priority 2014, dated 2018).

One assay addresses T1, Human BACE1 (Homo sapiens, UniProt P56817).
T1 construct: the soluble part of the human β-Secretase1 (AA1-AA460) was cloned using the BACE1(1-460)-(AVT)-Fc-pGEN-IRES-neo mammalian expression vector; AVT linker (C); made in house
In words: Diluted TR-FRET assay. The conditions noted are these: 50 times less enzyme, 6.5 h reaction time at r.t.; read-out: IC50 BACE1 (dil. TR-FRET). Format: biochemical. An outline of the steps: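 Human BACE1 (residues 1-460) was fused to an IgG1 Fc affinity tag and stably expressed in HEK 293 cells. Using a Multidrop Combi, 7 μL enzyme was added to 0.8 μL compound in dimethylsulphoxide and incubated 10 minutes. Reactions were stopped with 5.5 μL NaOAC Stop solution (pH 9), and TR-FRET fluorescence was read on a Pherastar HTRF module.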

The target of a further assay is T2, Human BACE2 (Homo sapiens, UniProt Q9Y5Z0).
T2 construct: the soluble part of the human β-Secretase2 (AA1-AA473) was cloned using BACE2(1-473)-(AVT)-Fc-pDEST12.2 mammalian expression vector; AVT linker (C); made in house
T2 sequence (Q9Y5Z0 21-473): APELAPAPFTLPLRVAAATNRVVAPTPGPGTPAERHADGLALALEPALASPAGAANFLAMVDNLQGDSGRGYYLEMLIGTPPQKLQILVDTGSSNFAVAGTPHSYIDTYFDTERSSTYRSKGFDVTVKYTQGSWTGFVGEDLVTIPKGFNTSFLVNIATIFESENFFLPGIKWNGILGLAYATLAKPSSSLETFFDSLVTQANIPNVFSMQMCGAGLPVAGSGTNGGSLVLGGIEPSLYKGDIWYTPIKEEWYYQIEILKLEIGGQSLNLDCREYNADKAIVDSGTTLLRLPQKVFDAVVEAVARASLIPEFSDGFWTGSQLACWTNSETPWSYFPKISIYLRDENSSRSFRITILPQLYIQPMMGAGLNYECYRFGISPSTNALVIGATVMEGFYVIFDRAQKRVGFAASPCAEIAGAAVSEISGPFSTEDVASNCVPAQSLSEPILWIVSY
As to the kind of experiment: TR-FRET assay. Format: biochemical. The conditions noted are these: substrate 100 nM, pH4.5.

The next assay concerns SH-SY5Y cells. As to the kind of experiment: sAPPβ release assay.
The mark [1] stands for this setting: Homo sapiens, SH-SY5Y, read-out: IC50 Cell (sAPPβ release, nM), SH-SY5Y cells, compounds incubated 16-17 h.
Setting [2] is: read-out: IC50 Cell (sAPPβ release), SH-SY5Y cells, compounds incubated 16-17 h.

Where a name gives a salt, the structure may show the parent alone. Read-outs that look alike come from different tables or passages of the source.

T1 sequence (P56817 22-460): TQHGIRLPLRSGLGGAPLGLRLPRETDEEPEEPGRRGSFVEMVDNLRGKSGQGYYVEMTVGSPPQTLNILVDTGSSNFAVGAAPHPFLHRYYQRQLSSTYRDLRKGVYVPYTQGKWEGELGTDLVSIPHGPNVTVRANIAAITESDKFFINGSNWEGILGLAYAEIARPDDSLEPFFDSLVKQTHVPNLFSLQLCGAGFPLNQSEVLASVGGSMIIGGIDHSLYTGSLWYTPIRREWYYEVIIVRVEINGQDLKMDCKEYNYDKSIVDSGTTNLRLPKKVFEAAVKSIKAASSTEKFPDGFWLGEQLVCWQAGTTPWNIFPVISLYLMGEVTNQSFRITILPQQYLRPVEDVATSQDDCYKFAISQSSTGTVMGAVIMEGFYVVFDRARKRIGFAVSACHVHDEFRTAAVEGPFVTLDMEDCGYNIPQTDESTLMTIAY

For `[2H]C([2H])([2H])O[C@H]1CC[C@@]2(Cc3ccc(-c4cnccc4F)cc3[C@]23N=C(N)OC3([2H])[2H])C[C@@H]1C` [Compound 104, {(1S,1′R,3S,4S)-6′-(4-fluoropyridin-3-yl)-4-(methoxy-d3)-3-methyl-3′H,5″H-dispiro[cyclohexane-1,2′-indene-1′,4″-oxazol]-5″,5″-d2-2″-amine}], the half-inhibitory concentration (IC50) was found to be 77 nM at Human BACE1, 1010 nM on Human BACE2 (enzyme 2.7 μg/mL) and 0.7 nM in the assay on SH-SY5Y cells (setting [1]).
`NC1=NC2(CO1)c1cc(-c3cncnc3)ccc1CC2N1CCOCC1` (stereo not drawn) [Compound 98, 2-morpholino-6-(pyrimidin-5-yl)-2,3-dihydro-5′H-spiro[indene-1,4′-oxazol]-2′-amine]: the IC50 at Human BACE1 is above 5000 nM; on Human BACE2 (enzyme 2.7 μg/mL) it was above 1580 nM; in the assay with SH-SY5Y cells (Homo sapiens, SH-SY5Y, read-out: IC50 Cell (sAPPβ release, nM)) it was 1840 nM.
Consider `CC1(C2CCOCC2)Cc2ccc(-c3cncnc3)cc2C12COC(N)=N2` (stereo not drawn) [Compound 102, 2-methyl-6-(pyrimidin-5-yl)-2-(tetrahydro-2H-pyran-4-yl)-2,3-dihydro-5′H-spiro[indene-1,4′-oxazol]-2′-amine], for which the half-maximal inhibitory concentration (IC50) at Human BACE1 is 2190 nM; against Human BACE2 (enzyme […]), above 5000 nM; in the assay on SH-SY5Y cells (setting [2]) it was 32.9 nM.
As for `[2H]C1([2H])OC(N)=N[C@]12c1cc(-c3cccnc3)ccc1C[C@@]21CC[C@H](OC)[C@@H](C)C1` [Compound 8, (1S,1′R,3S,4S)-4-methoxy-3-methyl-6′-(pyridin-3-yl)-3′H,5″H-dispiro[cyclohexane-1,2′-indene-1′,4″-oxazol]-5″,5″-d2-2″-amine], the IC50 is 54.7 nM at Human BACE1, 716 nM on Human BACE2 (enzyme 2.7 μg/mL) and 0.76 nM in the assay with SH-SY5Y cells (setting [1]).
For the molecule `[2H]C1([2H])OC(N)=N[C@]12c1cc(-c3cncc(Cl)c3)ccc1C[C@]21CC[C@@H](OC)[C@H](C)C1` [Compound 34, (1R,1′R,3R,4R)-6′-(5-chloropyridin-3-yl)-4-methoxy-3-methyl-3′H,5″H-dispiro[cyclohexane-1,2′-indene-1′,4″-oxazol]-5″,5″-d2-2″-amine], the concentration for half-maximal inhibition (IC50) is 11.7 nM at Human BACE1, 22.7 nM against Human BACE2 (enzyme […]) and 0.5 nM with SH-SY5Y cells (setting [2]).
In the case of `[2H]C1([2H])OC(N)=NC12c1cc(-c3cc(C#N)cc(OC)c3)ccc1CC2(C)C1CCOCC1` (stereo not drawn) [Compound 89, 3-(2′-amino-2-methyl-2-(tetrahydro-2H-pyran-4-yl)-2,3-dihydro-5′H-spiro[indene-1,4′-oxazol]-6-yl-5′,5′-d2)-5-methoxybenzonitrile], the IC50 is above 5000 nM on Human BACE1, above 5000 nM against Human BACE2 (enzyme 2.7 μg/mL) and 889 nM with SH-SY5Y cells (setting [1]).
As for `[2H]C1([2H])OC(N)=N[C@]12c1cc(-c3ccncc3)ccc1C[C@@]21CC[C@H](OC)[C@@H](C)C1` [Compound 112, {(1S,1′R,3S,4S)-4-methoxy-3-methyl-6′-(pyridin-4-yl)-3′H,5″H-dispiro[cyclohexane-1,2′-indene-1′,4″-oxazol]-5″,5″-d2-2″-amine}], the 50% inhibitory concentration (IC50) on Human BACE1 amounted to 2030 nM; against Human BACE2 (enzyme 2.7 μg/mL), 4820 nM; in the assay on SH-SY5Y cells (setting [1]), 14 nM.
Take `[2H]C([2H])([2H])O[C@@H]1CC[C@]2(Cc3ccc(-c4cccnc4)cc3[C@]23N=C(N)OC3([2H])[2H])C[C@H]1C` [Compound 80, (1R,1′R,3R,4R)-4-(methoxy-d3)-3-methyl-6′-(pyridin-3-yl)-3′H,5″H-dispiro[cyclohexane-1,2′-indene-1′,4″-oxazol]-5″,5″-d2-2″-amine]: the IC50 on Human BACE1 was 45 nM; against Human BACE2 (enzyme 2.7 μg/mL), 600 nM; in the assay with SH-SY5Y cells (setting [1]), below 0.16 nM.
On the same counts, the results for `[2H]C([2H])([2H])O[C@@H]1CC[C@]2(Cc3ccc(-c4cnccn4)cc3[C@]23N=C(N)OC3([2H])[2H])C[C@H]1C` [Compound 81, (1R,1′R,3R,4R)-4-(methoxy-d3)-3-methyl-6′-(pyrazin-2-yl)-3′H,5″H-dispiro[cyclohexane-1,2′-indene-1′,4″-oxazol]-5″,5″-d2-2″-amine] are 423 nM, above 5000 nM and 17 nM.
On the same counts, the results for `[2H]C1([2H])OC(N)=N[C@]12c1cc(-c3cccnc3)ccc1C[C@]21CC[C@@H](OC)[C@H](C)C1` [Compound 13, (1R,1′R,3R,4R)-4-methoxy-3-methyl-6′-(pyridin-3-yl)-3′H,5″H-dispiro[cyclohexane-1,2′-indene-1′,4″-oxazol]-5″,5″-d2-2″-amine] are 161 nM, 217 nM and 1.7 nM.
On the same counts, the results for `[2H]C1([2H])OC(N)=N[C@]12c1cc(-c3cncc(Cl)c3)ccc1C[C@]21CC[C@@H](OC)[C@H](C)C1` [Compound 7, (1R,1′R,3R,4R)-6′-(5-chloropyridin-3-yl)-4-methoxy-3-methyl-3′H,5″H-dispiro[cyclohexane-1,2′-indene-1′,4″-oxazol]-5″,5″-d2-2″-amine] are 11.7 nM, 22.7 nM and 0.45 nM.
For `CC1(C2Cc3ccc(-c4cncnc4)cc3C23COC(N)=N3)CCOCC1` (stereo not drawn) [Compound 96, 2-(4-methyltetrahydro-2H-pyran-4-yl)-6-(pyrimidin-5-yl)-2,3-dihydro-5′H-spiro[indene-1,4′-oxazol]-2′-amine], the IC50 at Human BACE1 is above 5000 nM; against Human BACE2 (enzyme 2.7 μg/mL), 1790 nM; in the assay with SH-SY5Y cells (setting [1]) it was 205 nM.
On the same counts, the results for `CO[C@H]1CC[C@]2(CC1)Cc1ccc(CCC(C)C)cc1C21COC(N)=N1` (stereo partly drawn) [Compound 51, (1r,4r)-6′-isopentyl-4-methoxy-3′H,5″H-dispiro[cyclohexane-1,2′-indene-1′,4″-oxazol]-2″-amine] are 188 nM, 306 nM and 20.6 nM.
On the same counts, the results for `CO[C@H]1CC[C@]2(CC1)Cc1ccc(-c3ccnnc3)cc1C21COC(N)=N1` (stereo partly drawn) [Compound 62, (1r,4r)-4-methoxy-6′-(pyridazin-4-yl)-3′H,5″H-dispiro[cyclohexane-1,2′-indene-1′,4″-oxazol]-2″-amine] are above 5000 nM, above 5000 nM and 250 nM.
On the same counts, the results for `COc1cc(C#N)cc(-c2ccc3c(c2)C2(COC(N)=N2)C(C)(C2CCOCC2)C3)c1` (stereo not drawn) [Compound 101, 3-(2′-amino-2-methyl-2-(tetrahydro-2H-pyran-4-yl)-2,3-dihydro-5′H-spiro[indene-1,4′-oxazol]-6-yl)-5-methoxybenzonitrile] are 194 nM, 274 nM and 75.6 nM.
For the molecule `[2H]C1([2H])OC(N)=N[C@]12c1cc(C#N)ccc1C[C@@]21CC[C@H](OC)[C@@H](C)C1` [Compound 120, {(1S,1′R,3S,4S)-6′-cyano-4-methoxy-3-methyl-3′H,5″H-dispiro[cyclohexane-1,2′-indene-1′,4″-oxazol]-5″,5″-d2-2″-amine}], the results for the IC50 at Human BACE1, at Human BACE2 (enzyme 2.7 μg/mL) and in the assay on SH-SY5Y cells (setting [1]) were 191 nM, 1630 nM and 7 nM, respectively.
The matching figures for `[2H]C1([2H])OC(N)=N[C@]12c1cc(-c3cc(F)cc(C#N)c3)ccc1C[C@]21CC[C@@H](OC)[C@H](C)C1` [Compound 17, 3-((1R,1′R,3R,4R)-2″-amino-4-methoxy-3-methyl-3′H,5″H-dispiro[cyclohexane-1,2′-indene-1′,4″-oxazol]-6′-yl-5″,5″-d2)-5-fluorobenzonitrile]: 46.7 nM, 30.2 nM and 2.1 nM.
Take `COc1cc(C#N)cc(-c2ccc3c(c2)C2(COC(N)=N2)C(C2CCOCC2)C3)c1` (stereo not drawn) [Compound 91, 3-(2′-Amino-2-(tetrahydro-2H-pyran-4-yl)-2,3-dihydro-5′H-spiro[indene-1,4′-oxazol]-6-yl)-5-methoxybenzonitrile]: the IC50 came out at 4660 nM at Human BACE1, 701 nM at Human BACE2 (enzyme 2.7 μg/mL) and 331 nM in the assay with SH-SY5Y cells (setting [1]).
The matching figures for `[2H]C1([2H])OC(N)=N[C@]12c1cc(-c3cncc(C4CC4)c3)ccc1C[C@]21CC[C@@H](OC)[C@H](C)C1` [Compound 1, (1R,1′R,3R,4R)-6′-(5-cyclopropylpyridin-3-yl)-4-methoxy-3-methyl-3′H,5″H-dispiro[cyclohexane-1,2′-indene-1′,4″-oxazol]-5″,5″-d2-2″-amine formate Salt]: 239 nM, 144 nM and 5.3 nM.
On the same counts, the results for `CO[C@H]1CC[C@]2(CC1)Cc1ccc(-c3cncc(C#N)c3)cc1[C@@]21COC(N)=N1` [Compound 38, 5-((1r,1′R,4R)-2″-amino-4-methoxy-3′H,5″H-dispiro[cyclohexane-1,2′-indene-1′,4″-oxazol]-6′-yl)nicotinonitrile] are 166 nM, 315 nM and 4.3 nM.
